Usually EC50 stands for the concentration at which the effect is half-maximal.

Read-outs that look alike come from different tables or passages of the source.

Format in all cases: cell-based
Test [1] relates to Trypanosoma cruzi amastigotes cultured in 3T3 fibroblast cells. Kind of test: Assay for growth inhibition of kinetoplastid parasite Trypanosoma cruzi (beta-galactosidase Tulahuen strain, CPRG readout). To be noted: Trypanosoma cruzi, T. cruzi amastigotes in 3T3 fibroblast cells, read-out: Buckner infectious T. cruzi EC50. An outline of the steps: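 3T3 fibroblasts (1,000 cells/well) plated overnight, treated with compound in DMSO, then infected with 10,000 Lac-Z-expressing Tulahuen trypomastigotes. After 6 days, 0.6 mM CPRG with 0.6% NP-40 added for 2 h at room temperature; absorbance gives relative intracellular amastigote numbers. Benznidazole and nifurtimox serve as positive controls.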

The subject of test [2] is Trypanosoma brucei brucei (Lister 427) strain. Kind of test: Assay for growth inhibition against Trypanosoma brucei brucei (Cell TiterGlo ATP luminescence). To be noted: T. brucei brucei (Lister 427), read-out: T. Brucei (HAT) EC50. An outline of the steps: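 T. b. brucei Lister 427 grown in HMI-9 with 10% FBS and 10% serum plus, seeded at 10,000 parasites/mL with 10-point threefold compound dilutions in duplicate, 37 °C for 2 days. Viability read as ATP luminescence 30 min after Cell TiterGlo; IC50 versus untreated controls.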
For orientation: In ATP-based viability assays light output follows the ATP content of the culture.

For test [3], the system named is Leishmania donovani axenic amastigote. Kind of test: In vitro assay for growth inhibition of Leishmania donovani axenic amastigote (Cell TiterGlo luminescence). To be noted: Leishmania donovani, L. donovani axenic amastigotes in vitro; read-out: L. donovani amastigotes EC50. Put shortly: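 Axenic L. donovani amastigotes (9600/well) grown at 37 °C, 5% CO2 in supplemented RPMI 1640, pH 5.5, with compound added from DMSO. After two days, viability read by CellTiter-Glo luminescence against DMSO and control-compound wells.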

The subject of test [4] is L. donovani HU3 strain in mouse peritoneal macrophages. The test is described as follows: Assay for inhibition of parasitemia of Leishmania donovani in mouse macrophages (SYBR Green nuclei count, high-content imaging). The note with it: Leishmania donovani, Peritoneal macrophage, read-out: L. donovani in Mouse Macrophages EC50. Put shortly:
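Peritoneal macrophages from uninfected BALB/c mice were infected for 24 h with spleen-derived L. donovani HU3 (4×10^5 parasites per 2×10^4 macrophages), then cultured with compound for 5 days at 37° C, 5% CO2. After fixation and permeabilization, parasite nuclei were stained with SYBR Green and counted by high-content imaging.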

Setting [5] is: L. donovani in mouse peritoneal macrophages.

On to `CCC(C)(C)c1cnc2nn(-c3cc(NC(=O)c4oc(C)nc4C)ccc3F)cc2c1` [Compound 104, N-{4-fluoro-3-[5-(2-methylbutan-2-yl)-2H-pyrazolo[3,4-b]pyridin-2-yl]phenyl}-2,4-dimethyl-1,3-oxazole-5-carboxamide], for which the EC50 amounted to 1200 nM in test [1] (Fibroblast), 4200 nM in test [2] (Trypanosoma brucei), 3100 nM in test [3] and 2100 nM in test [4] (setting [5]).
On the same counts, the results for `CC(C)OC(=O)Nc1cnc2nn(-c3cc(NC(=O)N4CC(F)C4)ccc3F)cc2c1` [Compound 168, Isopropyl (2-(2-fluoro-5-(3-fluoroazetidine-1-carboxamido)phenyl)-2H-pyrazolo[3,4-b]pyridin-5-yl)carbamate] are 27 nM, less than 23 nM, 3.2 nM and 8.2 nM.
With `O=C(Nc1ccc(F)c(-n2cc3cc(N4CC5(CC5)C4)cnc3n2)c1)N1CC[C@@H](F)C1` [Compound 259, (3R)-N-[3-(5-{5-azaspiro[2.3]hexan-5-yl}-2H-pyrazolo[3,4-b]pyridin-2-yl)-4-fluorophenyl}-3-fluoropyrrolidine-1-carboxamide], the EC50 in test [1] (Fibroblast) turned out to be 3 nM; in test [2] (Trypanosoma brucei) it was 4 nM; in test [3], 12 nM; in test [4] (setting [5]) it was 16 nM.
For `CC(=O)N1CCC1c1cnc2nn(-c3cc(NC(=O)N4CC(F)C4)ccc3F)cc2c1` (stereo not drawn) [Compound 267, N-(3-(5-(1-acetylazetidin-2-yl)-2H-pyrazolo[3,4-b]pyridin-2-yl)-4-fluorophenyl)-3-fluoroazetidine-1-carboxamide], in that order: 9400 nM, 81 nM, 1710 nM and 13800 nM.
For `O=C(Nc1ccc(F)c(-n2cc3cc(-c4ccccn4)cnc3n2)c1)N1CCCC1` [Compound 336, N-{4-fluoro-3-[5-(pyridin-2-yl)-2H-pyrazolo[3,4-b]pyridin-2-yl]phenyl}pyrrolidine-1-carboxamide], in that order: 1 nM, 1 nM, 2 nM and 4 nM.
For `CC(C)(C)Cc1cnc2nn(-c3cc(NC(=O)N4CC[C@@H](F)C4)ccc3F)cc2c1` [Compound 46, (3R)-N-{3-[5-(2,2-dimethylpropyl)-2H-pyrazolo[3,4-b]pyridin-2-yl]-4-fluorophenyl}-3-fluoropyrrolidine-1-carboxamide], in that order: 1.7 nM, less than 23 nM, 8.4 nM and 3.5 nM.
With `O=C(Nc1ccc(F)c(-n2cc3cc(N4CC(F)(F)C4)cnc3n2)c1)[C@H]1C[C@@H]1F` (single isomer, unassigned) [Compound 339], the EC50 in test [1] (Fibroblast) was 112 nM; in test [2] (Trypanosoma brucei) it was 163 nM; in test [3], 1590 nM; in test [4] (setting [5]) it was 310 nM.
Regarding `O=C(Nc1ccc(F)c(-n2cc3cc(N4CC5(CCOCC5)C4)cnc3n2)c1)N1CC(F)C1` [Compound 203, 3-fluoro-N-[4-fluoro-3-(5-{7-oxa-2-azaspiro[3.5]nonan-2-yl}-2H-pyrazolo[3,4-b]pyridin-2-yl)phenyl]azetidine-1-carboxamide], the EC50 stood at 20 nM in test [1] (Fibroblast), 5 nM in test [2] (Trypanosoma brucei), 490 nM in test [3] and 9 nM in test [4] (setting [5]).
On to `O=C(Nc1ccc(F)c(-n2cc3cc(N4C[C@@H](F)[C@H](F)C4)cnc3n2)c1)N1CC(F)C1` [Compound 234, N-(3-{5-[(3R,4R)-3,4-difluoropyrrolidin-1-yl]-2H-pyrazolo[3,4-b]pyridin-2-yl]-4-fluorophenyl)-3-fluoroazetidine-1-carboxamide], for which the EC50 in test [1] (Fibroblast) amounted to 9 nM; in test [2] it was 5 nM; in test [3] it was 27 nM; in test [4] (setting [5]), 3 nM.
Consider `O=C(Nc1ccc(F)c(-n2cc3cc(-c4ncccc4F)cnc3n2)c1)N1CC[C@@H](F)C1` [Compound 317, (3R)-3-fluoro-N-{4-fluoro-3-[5-(3-fluoropyridin-2-yl)-2H-pyrazolo[3,4-b]pyridin-2-yl]phenyl}pyrrolidine-1-carboxamide], for which the EC50 in test [1] (Fibroblast) is 1 nM; in test [2] (Trypanosoma brucei) it was 5 nM; in test [3] it was 2 nM; in test [4] (setting [5]), 2 nM.
Turning to `O=C(Nc1ccc(F)c(-n2cc3cc(CC(F)(F)F)cnc3n2)c1)N1CCC1` [Compound 164, N-{4-fluoro-3-[5-(2,2,2-trifluoroethyl)-2H-pyrazolo[3,4-b]pyridin-2-yl]phenyl}azetidine-1-carboxamide], the EC50 in test [1] (Fibroblast) was 1.7 nM; in test [2] (Trypanosoma brucei), less than 23 nM; in test [3], 6 nM; in test [4] (setting [5]), 10 nM.
`O=C(Nc1ccc(F)c(-n2cc3cc(Br)cnc3n2)c1)N1CC(F)(F)C1` [Compound 125, N-(3-(5-bromo-2H-pyrazolo[3,4-b]pyridin-2-yl)-4-fluorophenyl)-3,3-difluoroazetidine-1-carboxamide]: the EC50 is 34 nM in test [1], less than 23 nM in test [2] (Trypanosoma brucei), 44 nM in test [3] and 31 nM in test [4].
For the molecule `Cc1nc(C)c(C(=O)Nc2ccc(F)c(-n3cc4cc(C(C)(C)C)cnc4n3)c2)o1` [Compound 103, N-(3-{5-tert-butyl-2H-pyrazolo[3,4-b]pyridin-2-yl}-4-fluorophenyl)-2,4-dimethyl-1,3-oxazole-5-carboxamide], the half-maximal effective concentration (EC50) in test [1] (Fibroblast) amounted to 150 nM; in test [2] (Trypanosoma brucei) it was 310 nM; in test [3] it was 680 nM; in test [4] (setting [5]), 400 nM.
As to `O=C(Nc1ccc(F)c(-n2cc3cc(CC(F)(F)F)cnc3n2)c1)N1CC(F)(F)C1` [Compound 166, 3,3-difluoro-N-{4-fluoro-3-[5-(2,2,2-trifluoroethyl)-2H-pyrazolo[3,4-b]pyridin-2-yl]phenyl}azetidine-1-carboxamide], the EC50 in test [1] (Fibroblast) is 1.7 nM; in test [2] (Trypanosoma brucei), less than 23 nM; in test [3], 2.5 nM; in test [4] (setting [5]) it was 3.7 nM.
On the same counts, the results for `N#CC1CN(c2cnc3nn(-c4cc(NC(=O)N5CC(F)C5)ccc4F)cc3c2)C1` [Compound 266, N-{3-[5-(3-cyanoazetidin-1-yl)-2H-pyrazolo[3,4-b]pyridin-2-yl]-4-fluorophenyl}-3-fluoroazetidine-1-carboxamide] are 65 nM, 5 nM, 8 nM and 29 nM.
Take `O=C(Nc1ccc(F)c(-n2cc3cc(N4CCCC4)cnc3n2)c1)c1ccco1` [Compound 141, N-{4-fluoro-3-[5-(pyrrolidin-1-yl)-2H-pyrazolo[3,4-b]pyridin-2-yl]phenyl}furan-2-carboxamide]: the EC50 in test [1] (Fibroblast) is 22 nM; in test [2] (Trypanosoma brucei), less than 23 nM; in test [3], 80 nM; in test [4] (setting [5]), 12 nM.
Regarding `CC(C)c1cnc2nn(-c3cc(NC(=O)CCC(F)(F)F)ccc3F)cc2c1` [Compound 173, 4,4,4-trifluoro-N-(4-fluoro-3-(5-isopropyl-2H-pyrazolo[3,4-b]pyridin-2-yl)phenyl)butanamide], the EC50 was 140 nM in test [1] (Fibroblast), 120 nM in test [2] (Trypanosoma brucei), 410 nM in test [3] and 500 nM in test [4] (setting [5]).
As to `O=C(Nc1ccc(F)c(-n2cc3cc(C4CCC4)cnc3n2)c1)N1CCC1` [Compound 93, N-(3-{5-cyclobutyl-2H-pyrazolo[3,4-b]pyridin-2-yl}-4-fluorophenyl)azetidine-1-carboxamide], the EC50 in test [1] (Fibroblast) was 7 nM; in test [2] (Trypanosoma brucei) it was less than 23 nM; in test [3], 34 nM; in test [4] (setting [5]) it was 32 nM.
Turning to `O=C(Nc1ccc(F)c(-n2cc3cc(-c4ncccc4Cl)cnc3n2)c1)N1CC(F)(F)C1` [Compound 310, N-{3-[5-(3-chloropyridin-2-yl)-2H-pyrazolo[3,4-b]pyridin-2-yl]-4-fluorophenyl}-3,3-difluoroazetidine-1-carboxamide], the EC50 came to 1 nM in test [1] (Fibroblast), 5 nM in test [2] (Trypanosoma brucei), 2 nM in test [3] and 2 nM in test [4] (setting [5]).
Consider `Cc1nc(C)c(C(=O)Nc2ccc(F)c(-n3cc4cc(CC(F)(F)F)cnc4n3)c2)o1` [Compound 175, N-{4-fluoro-3-[5-(2,2,2-trifluoroethyl)-2H-pyrazolo[3,4-b]pyridin-2-yl]phenyl}-2,4-dimethyl-1,3-oxazole-5-carboxamide], for which the EC50 in test [1] (Fibroblast) is 4.9 nM; in test [2] (Trypanosoma brucei), less than 23 nM; in test [3], 24 nM; in test [4] (setting [5]), 8.1 nM.
On the same counts, the results for `CC(C)Cc1cnc2nn(-c3cc(NC(=O)N4CC(F)C4)ccc3F)cc2c1` [Compound 14, 3-fluoro-N-{4-fluoro-3-[5-(2-methylpropyl)-2H-pyrazolo[3,4-b]pyridin-2-yl]phenyl}azetidine-1-carboxamide] are 2 nM, less than 23 nM, 12 nM and 9.7 nM.

(Values after patent US11384078B2, “5,6-fused-bicyclic compounds and compositions for the treatment of parasitic diseases” (NOVARTIS AG, priority 2017, dated 2022).)
